# Assay results published in patent US20060100264A1, “3,3'-Diindolylmethane immune activating compositions” (priority 2004, published 2006).
# What was measured:
# Format in all cases: cell-based, human
# IFNγ receptor (IFNGR1) = assay: IFNGR1 mRNA expression in DIM-treated MCF-7 cells (cDNA microarray, Northern blot, quantitative RT-PCR)
# Description: (§1) Immune response activating effects of the DIM analogs are examined with cell-based assays for cytokine and cytokine receptor expression. […] We also used a sensitive sandwich ELISA assay to examine levels of IFNγ in medium from confluent cultures of MCF-7 cells that were treated for up to 3 days. DIM derivatives confirmed to have immune response activating activity in our reporter and ELISA assays are subsequently screened in a whole animal cytokine production and Y. enterocolitica infection studies, as described below in Examples VIII and IX.
# (§2) An initial cDNA gene expression microarray screen of human breast cancer MCF-7 cells treated with DIM, followed by confirmation of results using Northern blots and quantitative RT-PCR, established the transcriptional activation of IFNγ, IFNγ receptor (IFNGR1), oligoadenylate-synthase (OAS) family member protein 69 (p69-OAS), and interferon-inducible protein 56 (p56), a protein closely related to OAS. […] Maximum induction for IFNγ, IFNGR1, p69-OAS and p56 were 4.6, 3.8, 3.2 and 4.0 fold, respectively.
# [1] = test system: oligoadenylate-synthase (OAS) family member protein 69 (p69-OAS); assay: p69-OAS mRNA expression in MCF-7 cells (microarray, Northern blot, RT-PCR)
# Description: as §1, §2
# MHC-II = MHC-II expression in MCF-7 cells
# Source text: In an analogous further experiment, we observed no effect of DIM or IFNγ on MHC-II expression in the MCF-7 cells.
# [2] = test system: HLA-A, HLA-B, HLA-C, β-microtubulin, TAP1 and TAP2; assay: RT-PCR of MHC-I components and transporters in MCF-7 cells
# Source text: RT-PCR was used to examine the expression of the four major components of human MHC-I, including HLA-A, HLA-B, HLA-C, and β-microtubulin, as well as two important associated transporters, TAP1 and TAP2. […] As expected, the expressions of these genes were increased 2-8 fold by treatment with IFNγ.
smiles,measurement,setting,value
"c1ccc2c(Cc3c[nH]c4ccccc34)c[nH]c2c1 [DIM, 3,3′-Diindolylmethane]",Maximum induction of IFNGR1 mRNA,IFNγ receptor (IFNGR1); MCF-7 cells treated with DIM,3.8 fold
same,Treatment time at which maximum IFNGR-1 induction was reached,IFNγ receptor (IFNGR1); MCF-7 cells treated with DIM,48 h
same,IFNGR1 mRNA level at 48 h of treatment,"IFNγ receptor (IFNGR1); MCF-7 cells, 48 h",remained elevated
same,Maximum induction of p69-OAS mRNA,[1]; MCF-7 cells treated with DIM,3.2 fold
same,Treatment time at which p69-OAS expression was fully induced,[1]; MCF-7 cells treated with DIM,6 h
same,p69-OAS mRNA level at 48 h of treatment,"[1]; MCF-7 cells, 48 h",remained elevated
same,Effect on MHC-II expression,MHC-II,no effect
same,"Expression levels of the six genes (MHC-I components, TAP1, TAP2) above vehicle/background",[2],not significantly enhanced
